{"source": "patent US6969590B2", "about": "“Use of a polypeptide for treatment of pruritus in animals” (Zengen, Inc., priority 2001, dated 2005)", "key": {"[1]": {"system": "TNF-α and iNOS mRNA", "assay": "Northern blot of TNF-α and iNOS mRNA in activated microglia", "format": "cell-based, murine", "experimental": "Total cellular RNA was extracted from 10^6 adherent microglial cells plated in six-well tissue culture plates (Corning). Electrophoresis of RNA samples (10 μg/lane) was performed in 1% agarose/2.2 M formaldehyde gels and the gels subsequently blotted onto nylon filters by capillary action and baked for 2 h before prehybridization. The cDNA fragments encoding murine TNF-α and mouse macrophage iNOS were ^32P-labeled using the Ready-To-Go DNA Labeling Kit (Pharmacia, Uppsala, Sweden) before hybridization of nylon filters and autoradiography. Blots were subsequently rehybridized with human glyceraldehyde-3-phosphate dehydrogenase (G-3-PDH) cDNA probe as an internal control (Clontech Laboratories, Inc., Palo Alto, Calif.)."}, "[2]": {"system": "cAMP", "assay": "cAMP accumulation in N9 cells", "format": "cell-based, murine", "settings": "resting cells and cells incubated with LPS+IFN-γ", "experimental": "cAMP accumulation in N9 cells was measured as previously described. Briefly, cells in six-well plates were co-incubated at 37° C. with (1) medium; (2) forskolin (100 μM); (3) LPS (10 ng/mL)+IFN-γ (1 U/mL); (4) α-MSH (1-13) or α-MSH (11-13) (1, 10, 50 μM); (5) LPS+IFN-γ and either α-MSN (1-13) or α-MSH (11-13) (10 μM). Reactions were stopped after 3 min by aspirating supernatants, immediately adding 1 mL ethanol at −20° C. and freezing. cAMP content in the ethanol-soluble fraction was measured using an enzyme immunoassay kit (Amersham)."}, "[3]": {"system": "C. albicans", "assay": "Horse serum-induced germ tube formation of C. albicans", "format": "cell-based", "settings": "10^−6M, 60 minutes at 37° C.", "experimental": "C. albicans from stationary phase cultures were washed twice with distilled water and suspended in HBSS to a final concentration of 2×10^6/ml. Hyphal growth was induced by addition of 10% inactivated horse serum (GIBCO/BRL, Great Britain) to yeast incubated for 45 minutes at 37° C. with continuous shaking. Horse serum was removed by washing cells twice with HBSS and incubation was continued for 60 minutes at 37° C. in the presence of α-MSH (1-13), α-MSH (6-13) or α-MSH (11-13) at a concentration of 10^−6M with continuous shaking. The percentage of filamentous cells was evaluated under a light microscope with the aid of hemocytometer. Experiments were run in triplicate and at least 200 cells were scored. Photomicrographs were taken with an MC100 camera attached to an Axioskop Zeiss microscope."}}, "data": [{"sequence": "SYSMEHFRWGKPV [α-MSH (1-13)]", "values": [{"measurement": "mRNA for TNF-α and iNOS (Northern blot)", "setting": "[1]", "value": "inhibition of mRNA transaction for TNF-α and iNOS"}, {"measurement": "cAMP accumulation", "setting": "[2]", "value": "increased cAMP accumlation"}, {"measurement": "reduction in the number of filamentous cells (inhibition of germination)", "setting": "[3]", "value": "28-32%"}]}]}
